Laboratory results: patent US20120214847A1, “2-[1-PHENYL-5-HYDROXY-4a-SUBSTITUTED-HEXAHYDROCYCLOPENTA[F]INDAZOL-5-YL]ETHYL PHENYL DERIVATIVES AS GLUCOCORTICOID RECEPTOR LIGANDS” (Merck Sharp & Dohme Corp., priority 2009, published 2012)

Target: T1, glucocorticoid receptor (Homo sapiens, UniProt P04150)
T1 construct: endogenous in cells; host or cells: HeLa (ATCC) cell lysate supernatant
T1 sequence (P04150 1-777): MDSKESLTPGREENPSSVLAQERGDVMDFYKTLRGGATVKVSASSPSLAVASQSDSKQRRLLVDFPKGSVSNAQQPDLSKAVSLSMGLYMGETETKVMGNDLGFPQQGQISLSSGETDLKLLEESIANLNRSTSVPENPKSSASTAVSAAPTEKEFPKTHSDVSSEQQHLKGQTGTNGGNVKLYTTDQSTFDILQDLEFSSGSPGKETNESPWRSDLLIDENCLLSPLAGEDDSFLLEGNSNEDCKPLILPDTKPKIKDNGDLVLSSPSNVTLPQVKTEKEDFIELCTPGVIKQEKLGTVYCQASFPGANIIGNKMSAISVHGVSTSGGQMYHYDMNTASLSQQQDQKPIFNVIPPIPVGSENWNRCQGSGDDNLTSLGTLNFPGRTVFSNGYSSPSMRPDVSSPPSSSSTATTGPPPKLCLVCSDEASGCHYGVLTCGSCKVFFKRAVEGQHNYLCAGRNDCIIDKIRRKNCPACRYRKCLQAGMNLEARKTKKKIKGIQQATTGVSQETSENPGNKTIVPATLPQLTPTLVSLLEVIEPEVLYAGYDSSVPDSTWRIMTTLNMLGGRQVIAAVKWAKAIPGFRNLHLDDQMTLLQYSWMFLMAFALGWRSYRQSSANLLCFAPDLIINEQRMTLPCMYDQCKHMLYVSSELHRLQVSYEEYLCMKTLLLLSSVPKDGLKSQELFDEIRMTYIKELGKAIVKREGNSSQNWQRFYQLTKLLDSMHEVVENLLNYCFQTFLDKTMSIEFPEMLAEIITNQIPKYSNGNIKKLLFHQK
Assay: Ligand binding assay (GRBind), 3H-dexamethasone displacement in HeLa cell lysate
Settings: 3H-DEX tracer
Experimental: Binding Buffer: TEGM (10 mM Tris-HCl, 1 mM EDTA, 10% glycerol, 1 mM betamecaptoethanol, 10 mM Sodium Molybdate, pH 7.2)
50% HAP Slurry: Calbiochem Hydroxylapatite, Fast Flow, in 10 mM Tris, pH 8.0 and 1 mM EDTA.
Wash Buffer: 40 mM Tris, pH7.5, 100 mM KCl, 1 mM EDTA and 1 mM EGTA. 95% EtOH Dexmethasone-methyl-3H, (DEXA*); (Amersham cat#TRK645) Dexamethasone(DEX) (Sigma, cat#01756):
Hydroxylapatite Fast Flow; Calbiochem Cat#391947
25 Molybdate=Molybdic Acid (Sigma, M1651)
5 Cells (Hall R. E., et al., European Journal of Cancer, 30A: 484-490 (1994)) HeLa (ATCC) cultured in RPMI 1640 (Gibed 11835-055) containing 20 mM Hepes, 4 mM L-glu, 10 ug/ml of human insulin (Sigma, 1-0259), 10% FBS and 20 uglml of Gentamicin (Gibco#15710072) are rinsed twice in PBS. Phenol red-free Trypsin-EDTA is diluted in the same PBS 1:10. The cell layers are rinsed with IX Trypsin, extra Trypsin is poured out, and the cell layers are incubated at 37° C. for 2 min. The flask is tapped and checked for signs of cell detachment. Once the cells begin to slide off the flask, the complete media is added. The cells are counted at this point, then diluted to the appropriate concentration and split into flasks or dishes for further culturing (Usually 1:3 to 1:6 dilution).
Preparation of HeLa Cell Lysate
When the cells are 70 to 85% confluent, they are detached as described above, and collected by centrifuging at 1000 g for 10 min at 4° C. The cell pellet is washed twice with TEGM (10 mM Tris-HCl, 1 mM EDTA, 10% glycerol, 1 mM beta-mercaptoethanol, 10 mM Sodium Molybdate, pH 7.2). After the final wash, the cells are resuspended in TEGM at a concentration of 10^7 cells/mL. The cell suspension is snap frozen in liquid nitrogen or ethanol/dry ice bath and transferred to −80° C. freezer on dry ice. Before setting up the binding assay, the frozen samples are left on ice-water to just thaw. Then the samples are centrifuged at 12,500 g to 20,000 g for 30 min at 4° C. The supernatant is used to set-up assay right away. If using 50 μL of supernatant, the test compound can be prepared in 50 μL of the TEGM buffer.
Procedure for Multiple Compound Screening
1×TEGM buffer is prepared, and the isotope-containing assay mixture is prepared in the following order: EtOH (2% final concentration in reaction), 3H-DEX (Amersham Biosciences) and 1×TEGM. [e.g. For 100 samples, 200 JlL (100×2) of EtOH+4.25 JlL of 1:10 ^3H-Dex stock+2300 μL (100×23) 1×TEGM]. The compound is serially diluted, e.g., if starting final conc. is 1 μM, and the compound is in 25 μL of solution, for duplicate samples, 75 μL of 4×1 μM solution is made and 3 μL of 100). 1M is added to 72 μL of buffer, and 1:5 serial dilution.
25 μL of ^3H-DEX (6 nM) trace and 25 μL, compound solution are first mixed together, followed by addition of 50 μL receptor solution. The reaction is gently mixed, spun briefly at about 200 rpm and incubated at 4° C. overnight. 100 μL of 50% HAP slurry is prepared and added to the incubated reaction which is then vortexed and incubated on ice for 5 to 10 min. The reaction mixture is vortexed twice more to resuspend HAP while incubating reaction. The samples in 96-well format are then washed in wash buffer using the FilterMate™ Universal Harvester plate washer (Packard). The washing process transfers HAP pellet containing ligand-bound expressed receptor to Unifilter-96 GFIB filter plate (Packard). The HAP pellet on the filter plate is incubated with […] of MICROSCINT (Packard) scintillant for 30 min before being counted on the TopCount microscintillation counter (Packard). IC50s are calculated using DEX as a reference.

| Compound | Ki |
| --- | --- |
| CC[C@]12Cc3cnn(-c4ccc(F)cc4)c3C=C1CC[C@@]2(O)CCc1ccccc1CCC(N)=O [Example 22, 3-(2-{2-[(4aS,5R)-4a-Ethyl-1-(4-fluorophenyl)-5-hydroxy-1,4,4a,5,6,7-hexahydrocyclopenta[f]indazol-5-yl]ethyl}phenyl)propanamide] | 1.48 nM |
| N#Cc1ccccc1CC[C@]1(O)CCC2=Cc3c(cnn3-c3ccccc3)C[C@@]21C1CC1 [Example 27, 2-{2-[(4aR,5R)-4a-Cyclopropyl-5-hydroxy-1-phenyl-1,4,4a,5,6,7-hexahydrocyclopenta[f]indazol-5-yl]ethyl}benzonitrile] | 1 nM |
| N#Cc1c(F)cccc1CC[C@]1(O)CCC2=Cc3c(cnn3-c3ccccc3)C[C@@]21C1CC1 [Example 28, 2-{2-[(4aR,5R)-4a-Cyclopropyl-5-hydroxy-1-phenyl-1,4,4a,5,6,7-hexahydrocyclopenta[f]indazol-5-yl]ethyl}-6-fluorobenzonitrile] | 1.24 nM |
| NC(=O)c1ccccc1CC[C@]1(O)CCC2=Cc3c(cnn3-c3ccccc3)C[C@@]21C1CC1 [Example 29, 2-{2-[(4aR,5R)-4a-Cyclopropyl-5-hydroxy-1-phenyl-1,4,4a,5,6,7-hexahydrocyclopenta[f]indazol-5-yl]ethyl}benzamide] | 2.29 nM |
| N#Cc1cccnc1CC[C@]1(O)CCC2=Cc3c(cnn3-c3ccc(F)cc3)C[C@@]21C1CC1 [Example 31, 2-{2-[(4aR,5R)-4a-Cyclopropyl-1-(4-fluorophenyl)-5-hydroxy-1,4,4a,5,6,7-hexahydrocyclopenta[f]indazol-5-yl]ethyl}pyridine-3-carbonitrile] | 1.58 nM |
| O[C@@]1(CCc2cc(C(F)(F)F)ccn2)CCC2=Cc3c(cnn3-c3ccc(F)cc3)C[C@@]21C1CC1 [Example 32, (4aR,5R)-4a-Cyclopropyl-1-(4-fluorophenyl)-5-{2-[4-(trifluoromethyl)pyridin-2-yl]ethyl}-1,4,4a,5,6,7-hexahydrocyclopenta[f]indazol-5-ol] | 2.26 nM |
| CC[C@]12Cc3cnn(-c4ccc(F)cc4)c3C=C1CC[C@@]2(O)CCc1cc(C)ccn1 [Example 33, (4aS,5R)-4a-Ethyl-1-(4-fluorophenyl)-5-[2-(4-methylpyridin-2-yl)ethyl]-1,4,4a,5,6,7-hexahydrocyclopenta[f]indazol-5-ol] | 2.33 nM |
| CC[C@]12Cc3cnn(-c4ccc(F)cc4)c3C=C1CC[C@@]2(O)CCc1cc(C(F)(F)F)ccn1 [Example 34, (4aS,5R)-4a-Ethyl-1-(4-fluorophenyl)-5-{2-[4-(trifluoromethyl)pyridin-2-yl]ethyl}-1,4,4a,5,6,7-hexahydrocyclopenta[f]indazol-5-ol] | 2.23 nM |
| N#Cc1ccnc(CC[C@]2(O)CCC3=Cc4c(cnn4-c4ccc(F)cc4)C[C@@]32C2CC2)c1 [Example 35, 2-{2-[(4aR,5R)-4a-Cyclopropyl-1-(4-fluorophenyl)-5-hydroxy-1,4,4a,5,6,7-hexahydrocyclopenta[f]indazol-5-yl]ethyl}pyridine-4-carbonitrile] | 1.99 nM |

More lines, in order of falling Ki, values ahead:

| Ki | Compound |
| --- | --- |
| 3.82 nM | CC[C@]12Cc3cnn(-c4ccc(F)cc4)c3C=C1CC[C@@]2(O)CCc1ccccc1C(O)C(N)=O (stereo partly drawn) [Example 26, 2-(2-{2-[(4aS,5R)-4a-Ethyl-1-(4-fluorophenyl)-5-hydroxy-1,4,4a,5,6,7-hexahydrocyclopenta[f]indazol-5-yl]ethyl}phenyl)-2-hydroxyacetamide] |
| 3.23 nM | CC[C@]12Cc3cnn(-c4ccc(F)cc4)c3C=C1CC[C@@]2(O)CCc1ccccc1C(O)C(N)=O (stereo partly drawn) [Example 25, 2-(2-{2-[(4aS,5R)-4a-Ethyl-1-(4-fluorophenyl)-5-hydroxy-1,4,4a,5,6,7-hexahydrocyclopenta[f]indazol-5-yl]ethyl}phenyl)-2-hydroxyacetamide] |
| 2.52 nM | CC[C@]12Cc3cnn(-c4ccc(F)cc4)c3C=C1CC[C@@]2(O)CCc1ccc(F)cn1 [Example 19, (4aS,5R)-4a-Ethyl-1-(4-fluorophenyl)-5-[2-(5-fluoropyridin-2-yl)ethyl]-1,4,4a,5,6,7-hexahydrocyclopenta[f]indazol-5-ol] |
| 2.49 nM | CC[C@]12Cc3cnn(-c4ccccc4)c3C=C1CC[C@@]2(O)CCc1ccccc1C(N)=O [Example 20, 2-{2-[(4aS,5R)-4a-Ethyl-5-hydroxy-1-phenyl-1,4,4a,5,6,7-hexahydrocyclopenta[f]indazol-5-yl]ethyl}benzamide] |
| 2.19 nM | NS(=O)(=O)c1ccccc1CC[C@]1(O)CCC2=Cc3c(cnn3-c3cccnc3)C[C@@]21C1CC1 [Example 24, 2-{2-[(4aR,5R)-4a-Cyclopropyl-5-hydroxy-1-(pyridin-3-yl)-1,4,4a,5,6,7-hexahydrocyclopenta[f]indazol-5-yl]ethyl}benzenesulfonamide] |
| 2.02 nM | CC[C@]12Cc3cnn(-c4ccc(F)cc4)c3C=C1CC[C@@]2(O)CCc1cccc(OC)c1C(N)=O [Example 37, 2-{2-[(4aS,5R)-4a-Ethyl-1-(4-fluorophenyl)-5-hydroxy-1,4,4a,5,6,7-hexahydrocyclopenta[f]indazol-5-yl]ethyl}-6-methoxybenzamide] |
| 1.8 nM | NC(=O)c1ccccc1CC[C@]1(O)CCC2=Cc3c(cnn3-c3ccc(F)cc3)C[C@@]21C1CC1 [Example 23, 2-{2-[(4aR,5R)-4a-Cyclopropyl-1-(4-fluorophenyl)-5-hydroxy-1,4,4a,5,6,7-hexahydrocyclopenta[f]indazol-5-yl]ethyl}benzamide] |
| 1.63 nM | Cc1ccnc(CC[C@]2(O)CCC3=Cc4c(cnn4-c4ccc(F)cc4)C[C@@]32C2CC2)c1 [Example 36, (4aR,5R)-4a-Cyclopropyl-1-(4-fluorophenyl)-5-[2-(4-methylpyridin-2-yl)ethyl]-1,4,4a,5,6,7-hexahydrocyclopenta[f]indazol-5-ol] |
| 1.36 nM | N#Cc1ccccc1CC[C@]1(O)CCC2=Cc3c(cnn3-c3cccnc3)C[C@@]21C1CC1 [Example 30, 2-{2-[(4aR,5R)-4a-Cyclopropyl-5-hydroxy-1-(pyridin-3-yl)-1,4,4a,5,6,7-hexahydrocyclopenta[f]indazol-5-yl]ethyl}benzonitrile] |
| 1.04 nM | CC[C@]12Cc3cnn(-c4ccc(F)cc4)c3C=C1CC[C@@]2(O)CCc1cncc(F)c1 [Example 21, (4aS,5R)-4a-Ethyl-1-(4-fluorophenyl)-5-[2-(5-fluoropyridin-3-yl)ethyl]-1,4,4a,5,6,7-hexahydrocyclopenta[f]indazol-5-ol] |
